# Article PMC8322648, “Brevibacillin 2V Exerts Its Bactericidal Activity via Binding to Lipid II and Permeabilizing Cellular Membranes” (Frontiers in Microbiology, 2021)
# Tests used:
# [1] = system: S. aureus ATCC15975 (MRSA); test: Time-killing assay; type: cell-based, Staphylococcus aureus; conditions: for killing kinetics / capacity, in words: 10 × MIC (brevibacillins 20 μg/ml; nisin 40 μg/ml)
# Experimental: This assay was performed according to a previously described procedure ([Ling et al., 2015]; [Zhao et al., 2020b]). An overnight culture of cells [S. aureus ATCC15975 (MRSA)] was diluted 50-fold in MHB and incubated at 37°C with aeration at 220 rpm. Bacteria were grown to an OD600 of 0.5, and then, the concentration of cells was adjusted to ≈ 5 × 10^6 cells per ml. Bacteria were then challenged with nisin (40 μg/ml), brevibacillin (20 μg/ml), brevibacillin V (20 μg/ml), brevibacillin I (20 μg/ml), or brevibacillin 2V (20 μg/ml) in culture tubes at 37°C and 220 rpm (peptides at 10 × MIC, a desirable concentration at the site of infection). Bacteria not treated with peptides were used as negative controls. At desired time points, 200 μl aliquots were taken, centrifuged at 8,000 g for 2 min, and resuspended in 200 μl of MHB. 10-fold serially diluted samples were plated on MHA plates. After incubated at 37°C overnight, colonies were counted and c.f.u. per ml was calculated. Each experiment was performed in triplicate.
# [2] = system: S. aureus ATCC15975 (MRSA) membrane; test: DiSC3(5) membrane potential assay; type: cell-based, Staphylococcus aureus; conditions: 2 × MIC; for rank order of membrane disruption capacity: correlates with calculated hydrophobicity
# Experimental: Staphylococcus aureus ATCC15975 (MRSA) was grown to an OD600 of 0.8. The culture was pelleted at 5,000 × g for 5 min and washed three times in 10 mm HEPES with 10 mm glucose (pH 7.2). The cell density was normalized to an OD600 of 0.2, loaded with 2 μm DiSC3(5) dye, and incubated for 20 min in the dark for probe fluorescence to stabilize. After incubation, KCl was added to the cell suspension at a final concentration of 100 mm. Subsequently, the cell suspension was added to a 96-well microplate and incubation for 5 min; after that, antibiotics were added at a final concentration of 2 × MIC. Fluorescence was monitored for 25 min, with the antibiotics added after ~20 s. The excitation and emission wavelengths on the fluorescence spectrometer were adjusted to 622 nm and 670 nm, respectively. Representative examples from three technical replicates are shown.
# [3] = Circular dichroism assay, 7-Lipid II; type: binding; conditions: 10 mM boric acid-NaOH pH 7.5, 0.1% CHAPS, 20°C; for conformational change in presence of DOPC: antibiotic 50 μM, DOPC vesicles 100 μM; for conformational change in presence of 7-Lipid II: antibiotic and 7-Lipid II 50 μM
# Experimental: Lipid II and 7-Lipid II (a heptaprenyl version of Lipid II) were synthesized and purified as described in a previous study ([Breukink et al., 2003]; Figures 2A,B). Purified Lipid II and 7-Lipid II were dissolved in CHCl3/MeOH (2:1) and stored at −20°C until use, and the concentration was determined after destruction to inorganic phosphate according to [Rouser et al. (1970)]. 7-Lipid II was only used in circular dichroism assays, while wild-type Lipid II was used in all of the other assays.
# 7-Lipid II and 1,2-dioleoyl-sn-glycero-3-phosphocholine (DOPC) were resuspended in 10 mm boric acid-NaOH pH 7.5 containing 0.1% CHAPS. The final concentration of antibiotics and 7-Lipid II was adjusted to 50 μm, while a 100 μm final concentration of DOPC vesicles was used. After added the samples to a quartz cuvette with a path length of 1 mm, the CD spectra were recorded with a Jasco-810 CD spectropolarimeter at 20°C. The ellipticity was recorded between 185 nm and 260 nm at a 0.2-nm step size with 1-s response time. The spectra were averaged over five recordings with a scanning speed of 50 nm/min.
# [4] = Carboxyfluorescein leakage assay, DOPC LUVs with 0.1% Lipid II; conditions: peptide 100 nM; for membrane permeabilization (CF leakage), Lipid II containing LUVs: LUVs 5 μM, DOPC plus 0.1% Lipid II, 25 mM Tris-HCl, 150 mM NaCl, pH 7.5, ex 492/em 515 nm
# Experimental: LUVs that contain DOPC or DOPC plus 0.1% Lipid II were prepared for a carboxyfluorescein (CF) leakage assay. The lipids were dried by a nitrogen stream and followed under vacuum for 2 h. After that, the lipids were hydrated by adding 25 mm Tris-HCl, 150 mm NaCl, and pH 7.5 containing 50 mm CF. The suspensions were frozen and thawed 10 times, followed by extrusion through 200nm membrane filters (Whatman Nuclepore, Track-Etch Membranes) 10 times. The excess dye was removed by loading vesicles on a spin column (Sephadex G50) for 2 min at 500 × g. Subsequently, the vesicles were diluted to 5 μm, and the brevibacillins-induced release of CF from the vesicles was monitored by measuring the increase in fluorescence intensity. The maximum fluorescence was reached by adding 10 μl of 20% Triton X-100. A Cary Eclipse Fluorescence Spectrophotometer (Agilent, United States) was used to determine the changes of fluorescence signals, and the excitation wavelength and emission wavelength were adjusted to 492 nm and 515 nm, respectively.
# [5] = system: Staphylococcus aureus (MRSA); conditions: ref Zhao et al., cited from earlier work; for MIC: Staphylococcus aureus (MRSA), Figure 1, 2021; for MIC (molar): strain not given, compared with CF leakage concentration, 2021 (MIC source, b3)
# From the text: Figure 1 Structures of brevibacillins. The red color indicates the more hydrophobic amino acid residues of brevibacillin V, brevibacillin and brevibacillin I relative to brevibacillin 2V. MIC, the minimum inhibitory concentration against Staphylococcus aureus (MRSA). HC50, the 50% human blood cell hemolysis concentration. CC50, the 50% cell (HepG2) toxicity concentration. […] LUVs-based CF leakage assay is widely used in the studies of the antibiotic mode of action ([Hasper et al., 2004]; [Smith et al., 2008]; [Slootweg et al., 2015]; [Bakhtiary et al., 2017]). Disruption of the vesicle membrane by certain compounds releases CF from the LUVs into the extra-vesicular milieu resulting in increased fluorescence signal (Figure ...
# HepG2 = conditions: Figure 1, ref Zhao et al., 2021; cited from earlier work
# From the text: (§1) A vast number of bacterial non-ribosomally produced peptides (NRPs) have shown strong antimicrobial activity against pathogenic bacteria ([Cochrane et al., 2014]; [Cociancich et al., 2015]; [Hamamoto et al., 2015]; [Ling et al., 2015]; [Süssmuth and Mainz, 2017]). Lipo-tridecapeptides, a class of NRPs, show strong antimicrobial activity against Gram-positive pathogens, including antibiotic-resistant Staphylococcus aureus and Enterococcus spp. ([Barsby et al., 2001], [2006]; [Yang et al., 2016]; [Wu et al., 2019]; [Zhao et al., 2021]). However, many of these lipo-tridecapeptides have shown high ... || Figure 1 Structures of brevibacillins. The red color indicates the more hydrophobic amino acid residues of brevibacillin V, brevibacillin and brevibacillin I relative to brevibacillin 2V. MIC, the minimum inhibitory concentration against Staphylococcus aureus (MRSA). HC50, the 50% human blood cell hemolysis concentration. CC50, the 50% cell (HepG2) toxicity concentration.
# human red blood cells = conditions: 2021, cited from earlier work; for HC50, 50% human blood cell hemolysis concentration: Figure 1, ref Zhao et al.
# From the text: as §1
Substance,"killing kinetics / capacity, in words ([1]; MHB, 37°C)","bactericidal or bacteriostatic action ([1]; S. aureus (MRSA), 10 × MIC)",rank order of membrane disruption capacity [2],conformational change in presence of DOPC [3],conformational change in presence of 7-Lipid II [3],"membrane permeabilization (CF leakage), Lipid II containing LUVs [4]",MIC [5] [µg/mL],MIC (molar) [5] [µM],"CC50, 50% cell (HepG2) toxicity concentration (HepG2) [µg/mL]",cytotoxicity relative to the other brevibacillins (HepG2),"hemolytic activity (human red blood cells; 128 mg/L, ref Zhao et al.)","HC50, 50% human blood cell hemolysis concentration (human red blood cells) [mg/L]","time to complete killing of all cells ([1]; 10 × MIC (nisin 40 μg/ml; brevibacillins 20 μg/ml), ≈ 5 × 10^6 cells per ml, MHB, 37°C, 220 rpm, triplicate) [h]",speed of membrane permeabilization [2],"percentage of CF leakage, comparison in words ([4]; LUVs with 0.1% Lipid II)"
Brevibacillin 2V,"slowest killing capacity among brevibacillins, with similar killing kinetics as nisin",bactericidal antimicrobial agent,brevibacillin I > brevibacillin > brevibacillin V > brevibacillin 2V,no change was apparent,significant conformational change,rapid membrane permeabilization,2,1.3,45.49 ± 0.24,much lower cytotoxicity than the other brevibacillins,no hemolytic activity,> 128,,,
Brevibacillin,intermediate killing capacity,,brevibacillin I > brevibacillin > brevibacillin V > brevibacillin 2V,no change was apparent,significant conformational change,rapid membrane permeabilization,2,1.3,5.21 ± 0.01,,,25.1 ± 0.1,≤ 2,appeared to act faster than brevibacillin 2V and the well-known pore-forming antibiotic nisin,higher percentage of CF leakage than brevibacillin 2V
